These results are taken from patent US20150011559A1, “ANTIMICROBIAL AGENTS” (RUTGERS, THE STATE UNIVERSITY OF NEW JERSEY, priority 2012, published 2015).

Test [1] has as its system methicillin-susceptible Staphylococcus aureus (MSSA). The test can be described thus: Antibacterial assay (Test C), broth microdilution MIC against MSSA. In kind it is cell-based. To be noted: minimal inhibitory concentration, broth microdilution, growth completely inhibited; for MIC: Staphylococcus aureus, MSSA, read-out: MSSA MIC data. As to the method: (§1) Test C. Antibacterial Assay.
(§2) Antibacterial activity can be determined as per Clinical and Laboratory Standards Institute (CLSI) guidelines using a broth microdilution assay in which log-phase bacteria are grown at 37° C. in appropriate medium containing two-fold serial dilutions of a compound to yield final concentrations ranging from 256 to 0.06 μg/mL. For determination of minimal inhibitory concentration (MIC) values, bacterial growth is monitored after 24 to 48 hours by measuring optical density at 600 nm.
(§3) Using a procedure similar to Test C, representative compounds of the invention were tested against methicillin-susceptible Staphylococcus aureus (MSSA) and methicillin-resistant Staphylococcus aureus (MRSA).
In general terms: In broth dilution the organism is exposed to a series of concentrations in liquid medium.

The subject of test [2] is methicillin-resistant Staphylococcus aureus (MRSA). The test can be described thus: Antibacterial assay (Test C), broth microdilution MIC against MRSA. Format: cell-based. To be noted: Staphylococcus aureus, MRSA, minimal inhibitory concentration, broth microdilution, growth completely inhibited; read-out: MRSA MIC data. As to the method: as §1, §2, §3

Each structure is given as a SMILES string. Values after ≈ are worked out from the molar mass of the structure shown.

Usually MIC stands for the least concentration at which growth counts as inhibited.

Regarding `NC(N)=NCc1cccc(-c2ccc(-c3cscn3)cc2)c1` [Code 65], the results for the “MSSA MIC data” value in test [1] and in test [1] (listed as 55) were 8.0 µg/mL and 32 µg/mL, respectively. Moreover, in test [2], the MIC was determined as 32 µg/mL (≈ 104 µM).
Regarding `CC(C)(C)c1ccc(-c2cc(Cn3ccnc3)cc(Cn3ccnc3)c2)cc1` [Code 60], the MIC in test [1] amounted to 4 µg/mL (≈ 10.8 µM); in test [2], 8 µg/mL (≈ 21.6 µM).
As for `CC(C)(C)c1ccc(-c2cccc(CCN)c2)cc1` [Code 40], the values for the MIC in test [1] and in test [2] were 16 µg/mL (≈ 63.1 µM) and 8 µg/mL (≈ 31.6 µM), respectively.
